Test results: patent publication US20070010489A1 (priority 2002, published 2007)
Where two headings read alike, the source gives them in different places.

What was measured:
[1] = system: mutant HIV-1 with I84V/L90M mutations; experiment: microbe, parasite or virus in culture; format: cell-based
[2] = system: wild-type HIV-1 strain IIIB; experiment: microbe, parasite or virus in culture; format: cell-based
84V90M [3] = molecular target: T1, 84V90M (Human immunodeficiency virus type 1 group M subtype B, UniProt P04585, I572V/L578M); experiment: cell-based; design: species or system HIV; details: Cell-based assay (MT-4)
84V90M [4] = molecular target: T1, 84V90M; format: biochemical, HIV; details: Enzymatic assay
[5] = molecular target: T2, recombinant HIV-1 protease (Human immunodeficiency virus type 1 group M subtype B, UniProt P04585); experiment: biochemical
T2 construct: Enzyme: recombinant HIV-1 protease expressed in E. Coli; purchased Bachem California, Inc. H-9040; host or cells: E. coli

[6] = fold difference in EC50 mutant vs wild type, class symbols
[7] = Human immunodeficiency virus 1, IIIB
[8] = read-out: Anti-HIV-1 Cell Culture Activity EC50
[9] = read-out: HIV-1 protease inhibition Ki

| Structure (SMILES) | EC50 [2, 7] | I84V/L90M fold change ([1]; fold change) | other results |
| --- | --- | --- | --- |
| CCOC(=O)C(C)NP(=O)(Cc1ccc(NCC(NC(=O)OC2COC3OCCC23)C(O)CN(CC(C)C)S(=O)(=O)c2ccc(OC)cc2)cc1)NC(C)C(=O)OCC (stereo not drawn) | 50 to 500 nM |  | I84V/L90M fold change [1, 6]: − (≦3) |
| CCOP(=O)(OCC)c1ccc(CNCC(NC(=O)OC2COC3OCCC23)C(O)CN(CC(C)C)S(=O)(=O)c2ccc(OC)cc2)cc1 (stereo not drawn) | < 50 nM |  | I84V/L90M fold change [1, 6]: ++ (>10 to ≦30) |
| CCOP(=O)(OCC)c1ccc(CN(C)CC(NC(=O)OC2COC3OCCC23)C(O)CN(CC(C)C)S(=O)(=O)c2ccc(OC)cc2)cc1 (stereo not drawn) | < 50 nM |  | I84V/L90M fold change [1, 6]: − (≦3) |
| COc1ccc(S(=O)(=O)N(CC(C)C)CC(O)C(Cc2ccc(CO)cc2)NC(=O)OC2COC3OCCC23)cc1 (stereo not drawn) | < 50 nM | − (≦3) |  |
| COc1ccc(S(=O)(=O)N(CCN(C)C)CC(O)C(Cc2ccc(O)cc2)NC(=O)OC2COC3OCCC23)cc1 (stereo not drawn) | 50 to 500 nM | − (≦3) |  |
| COc1ccc(S(=O)(=O)N(CCN(C)C)CC(O)C(Cc2ccc(OCc3ccccc3)cc2)NC(=O)OC2COC3OCCC23)cc1 (stereo not drawn) | < 50 nM | − (≦3) |  |
| Cc1cccc(C)c1OCC(=O)NC(Cc1ccc(OCP(=O)(OCc2ccccc2)OCc2ccccc2)cc1)C(O)CN(CC(C)C)S(=O)(=O)c1ccc(N)cc1 (stereo not drawn) | 50 to 500 nM | − (≦3) |  |
| CCOP(=O)(COc1ccc(S(=O)(=O)N(CC(C)C)CC(O)C(Cc2ccccc2)NC(=O)OC2COC3OCCC23)cc1)OCC (stereo not drawn) | < 50 nM | ++ (>10 to ≦30) |  |
| CC(C)CN(CC(O)C(Cc1ccccc1)NC(=O)OC1COC2OCCC12)S(=O)(=O)c1ccc(OCP(=O)(OCc2ccccc2)OCc2ccccc2)cc1 (stereo not drawn) | 50 to 500 nM | +++ (>30) |  |
| COc1cccc(S(=O)(=O)N(CC(C)C)CC(O)C(Cc2ccccc2)NC(=O)OC2COC3OCCC23)c1 (stereo not drawn) | < 50 nM | ++ (>10 to ≦30) |  |
| CCOP(=O)(COc1cccc(S(=O)(=O)N(CC(C)C)CC(O)C(Cc2ccccc2)NC(=O)OC2COC3OCCC23)c1)OCC (stereo not drawn) | < 50 nM | ++ (>10 to ≦30) |  |
| CC(C)CN(CC(O)C(Cc1ccccc1)NC(=O)OC1COC2OCCC12)S(=O)(=O)c1cccc(OCP(=O)(OCc2ccccc2)OCc2ccccc2)c1 (stereo not drawn) | < 50 nM | ++ (>10 to ≦30) |  |
| COc1ccc(S(=O)(=O)N(CC(C)C)CC(O)C(Cc2ccccc2)NC(=O)OC2COC3OCCC23)cc1OCP(=O)(OCc1ccccc1)OCc1ccccc1 (stereo not drawn) |  | ++ (>10 to ≦30) |  |
| CCOP(=O)(COc1ccc(CC2C(O)C(O)C(Cc3ccccc3)N(Cc3ccccc3)C(=O)N2Cc2ccccc2)cc1)OCC (stereo not drawn) |  |  | EC50 (84V90M [3]): 2460 nM; IC50 (84V90M [4]): 48 nM |
| CCOP(=O)(COCCCCN1C(=O)N(Cc2ccc3[nH]nc(N)c3c2)C(Cc2ccccc2)C(O)C(O)C1Cc1ccccc1)OCC (stereo not drawn) [CH2OCH2PO3Et2] |  |  | EC50 (84V90M [3]): 3300 nM; IC50 (84V90M [4]): 123 nM |
| CCOC(=O)C(CC)OP(=O)(COc1ccc(CC(NC(=O)OC2COC3OCCC23)C(O)CN(CC(C)C)S(=O)(=O)c2ccc(OC)cc2)cc1)Oc1ccccc1 (stereo not drawn) [Compound 5a] |  |  | I84V/L90M fold change [1, 6]: − (≦3); EC50 ([2]; Human immunodeficiency virus 1, IIIB, class symbols): < 50 nM; Ki ([5]; Ki (pM), class symbols): 10 to 100 pM |
| CCOC(=O)C(CC)OP(=O)(COc1ccc(CC(NC(=O)OC2COC3OCCC23)C(O)CN(CC(C)C)S(=O)(=O)c2ccc(OC)cc2)cc1)Oc1ccccc1 (stereo not drawn) [Compound 5b] |  |  | Ki ([5]; Ki (pM), class symbols): 100 to 1000 pM |
| CCOC(=O)C(CC)NP(=O)(COc1ccc(CC(NC(=O)OC2COC3OCCC23)C(O)CN(CC(C)C)S(=O)(=O)c2ccc(OC)cc2)cc1)NC(CC)C(=O)OCC (stereo not drawn) [Example 16e] |  |  | EC50 [2, 8]: 12.5 ± 3.5 nM; Ki [5, 9]: 8.8 ± 1.7 pM |
| CCOC(=O)C(CC(C)C)NP(=O)(COc1ccc(CC(NC(=O)OC2COC3OCCC23)C(O)CN(CC(C)C)S(=O)(=O)c2ccc(OC)cc2)cc1)NC(CC(C)C)C(=O)OCC (stereo not drawn) [Example 16g] |  |  | EC50 [2, 8]: 6.8 ± 0.4 nM; Ki [5, 9]: 29 ± 9 pM |
| CC(C)CN(C[C@@H](O)[C@H](Cc1ccc(OCP(=O)(Oc2ccccc2)Oc2ccccc2)cc1)NC(=O)OC1CCOC1)S(=O)(=O)c1ccc(N)cc1 (stereo partly drawn) [NH2, phenol] |  | − (≦3) | EC50 ([2]; read-out: EC50): 50 to 500 nM |
| CC(C)CN(CC(O)C(Cc1ccc(OCCN(C)C)cc1)NC(=O)OC1COC2OCCC12)S(=O)(=O)c1ccc(OCP(=O)(OCc2ccccc2)OCc2ccccc2)cc1 (stereo not drawn) [OC2H4—NMe2, OBn] | 50 to 500 nM |  |  |
| CCOP(=O)(COc1ccc(CC2C(O)C(O)C(Cc3ccc(OC)cc3)N(Cc3cccnc3)C(=O)N2Cc2cccnc2)cc1)OCC (stereo not drawn) [OCH3, m-pyridine, OCH2PO3Et2] |  |  | EC50 (84V90M [3]): 765 nM |
| CC(C)CN(CC(O)C(Cc1ccc(O)cc1)NC(=O)OC1COC2OCCC12)S(=O)(=O)c1ccc(OCP(=O)(OCc2ccccc2)OCc2ccccc2)cc1 (stereo not drawn) [OH, OBn] | 50 to 500 nM |  |  |
